From patent EP4786487A1, “PEPTIDE” (Peptidream Inc, priority 2023, dated 2025) come the findings set out here.

Starred links: 1 amine or outer side, 2 acyl side, 3 side chain; linkers in the order of their positions; H or OH if unused. Positions of bridges follow the written chain, without caps; N, C: chain ends. Non-standard residues stand in square brackets, D forms with d. Residues, ends and D or L forms follow the SMILES beside them. Groups on a side chain read outwards from the residue. *: point of attachment. Phe(3-OCH2COOH) = N[C@@H](Cc1cccc(OCC(=O)O)c1)C(=O)O; NMePhe(3-Ph) = CN[C@@H](Cc1cccc(-c2ccccc2)c1)C(=O)O; Phe(4-COOH) = N[C@@H](Cc1ccc(C(=O)O)cc1)C(=O)O; Trp(7-aza) = N[C@@H](Cc1c[nH]c2ncccc12)C(=O)O; Piperazinyl(4-CH2COOH) = O=C(O)CN1CCN(*)CC1; Gly(N(CH2)3COOH) = O=C(O)CCCNCC(=O)O; X1 = CCCCCCC[C@H](N[*:1])C(=O)[*:2]; NMeCha = CN[C@@H](CC1CCCCC1)C(=O)O; NMeF = CN[C@@H](Cc1ccccc1)C(=O)O; 4Pal = N[C@@H](Cc1ccncc1)C(=O)O; NMeA = CN[C@@H](C)C(=O)O; CO = O=C([*:1])[*:2]; NEtG = CCNCC(=O)O; Sar = CNCC(=O)O

For one assay, the target named is T1, GDF-11 (Homo sapiens, UniProt O95390).
T1 construct: purchased R&D systems 1958-GD-G8/CF
T1 sequence (O95390 299-407): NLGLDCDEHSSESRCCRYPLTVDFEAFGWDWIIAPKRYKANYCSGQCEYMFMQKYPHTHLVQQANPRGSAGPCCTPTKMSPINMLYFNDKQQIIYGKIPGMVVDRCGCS
In words: HepG2 reporter gene assay, Evaluation Procedure (2): 2-concentrations assay, GDF-11 inhibition. Format: cell-based. Particulars: GDF-11 10 ng/mL; for inhibition at 0.03 µM: HepG2, peptide 30nM, read-out: GDF11 Inhibition 30nM; for inhibition at 0.1 µM: HepG2, peptide 100nM, read-out: GDF11 Inhibition 100nM. The procedure, abridged: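 HepG2 cells carrying the transfected pGL3(CAGA)12-luc reporter, a pGL3 vector with luciferase placed downstream of 12 CAGA repeats, were stimulated with GDF-11 at a final 10 ng/mL together with test peptide. Blank wells received no GDF-11 and no peptide. Plates were incubated 20 to 24 hours at 37°C with 5% CO2. Luminescence from One-Glo substrate was read to calculate percent inhibition.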
In general terms: A reporter such as luciferase makes a cellular process visible.

The next assay has as its target T2, Myostatin (Homo sapiens, UniProt O14793).
T2 construct: active myostatin (also called mature myostatin) is a homodimer consisting of two C-terminal growth factor domains; purchased R&D systems 788-G8/CF
T2 sequence (O14793 267-375): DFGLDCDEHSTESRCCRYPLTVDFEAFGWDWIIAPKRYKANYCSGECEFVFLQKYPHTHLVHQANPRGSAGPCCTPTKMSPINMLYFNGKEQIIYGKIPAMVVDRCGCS
Nature of the assay: HepG2 reporter gene assay, Evaluation Procedure (2): 2-concentrations assay, myostatin inhibition. The class given is cell-based. Particulars: Myostatin 10 ng/mL, HepG2; for inhibition at 0.03 µM: peptide 30nM, read-out: Myostatin Inhibition 30nM; for inhibition at 0.1 µM: peptide 100nM, read-out: Myostatin Inhibition 100nM. The procedure, abridged:
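Myostatin inhibition was measured in a luciferase reporter assay using HepG2 cells transfected with a pGL3 vector containing 12 CAGA repeats upstream of luciferase. After 20 to 24 hours with 10 ng/mL myostatin, cells received One-Glo:PBS (1:1) at 100 µL/well, were shaken for 5 min, and 20 µL/well was moved to 384-well plates and read on an Envision 2104.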

In general, inhibition refers to the change of the read-out against control, counted positive when it falls.

As for `CC[C@H](C)[C@@H]1NC(=O)[C@H](Cc2ccccc2)N(C)C(=O)[C@H](Cc2ccc(O)cc2)NC(=O)[C@H](Cc2c[nH]c3ncccc23)NC(=O)[C@H](C)NC(=O)CN(CCCC(=O)O)C(=O)CSC[C@H](C(N)=O)NC(=O)[C@H](Cc2ccccc2)N(C)C(=O)[C@H](C)N(C)C(=O)[C@H](CC(C)C)NC(=O)[C@H](Cc2ccccc2)N(C)C(=O)[C@H](CCCNC(=N)N)NC(=O)[C@H](Cc2ccc(C(=O)O)cc2)NC(=O)[C@H](Cc2ccc(O)cc2)NC(=O)CN(C)C1=O` [Myostatin_99_Variant_14] ({CH2CO}-[Gly(N(CH2)3COOH)]A[Trp(7-aza)]Y[NMeF]I[Sar]Y[Phe(4-COOH)]R[NMeF]L[NMeA][NMeF][dC]-NH2; thioether N-15), at GDF-11, the inhibition at 0.03 µM worked out at 0% and the inhibition at 0.1 µM is 1%. Besides, at Myostatin, the inhibition at 0.03 µM came out at 41% and the inhibition at 0.1 µM came to 73%.
In the same order, the values of `CCCCCCC[C@@H]1NC(=O)[C@H](Cc2ccccc2)N(C)C(=O)[C@H](CCCNC(=N)N)NC(=O)[C@H](Cc2ccc(C(=O)O)cc2)NC(=O)[C@H](CCCCNC(=O)N2CCN(CC(=O)O)CC2)NC(=O)CN(CC)C(=O)[C@H]([C@@H](C)CC)NC(=O)[C@H](CC2CCCCC2)N(C)C(=O)[C@H](Cc2ccc(O)cc2)NC(=O)[C@H](Cc2c[nH]c3ccccc23)NC(=O)[C@@H](CCC(=O)O)NC(=O)[C@H](C)NC(=O)CSC[C@H](C(=O)N2CCN(CC(=O)O)CC2)NC(=O)[C@H](Cc2ccccc2)N(C)C(=O)[C@H](C)N(C)C1=O` [Myostatin_99_v258] ({CH2CO}-A[dE]WY[NMeCha]I[NEtG]K([CO-Piperazinyl(4-CH2COOH)])[Phe(4-COOH)]R[NMeF][X1][NMeA][NMeF][dC]-{Piperazinyl(4-CH2COOH)}; thioether N-15) are 0%, 0%, 21% and 61%.
On to `CC[C@H](C)[C@@H]1NC(=O)[C@H](Cc2ccccc2)N(C)C(=O)[C@H](Cc2ccc(O)cc2)NC(=O)[C@H](Cc2c[nH]c3ncccc23)NC(=O)[C@H](C)NC(=O)[C@H](C)NC(=O)CSC[C@H](C(=O)NCC(=O)N[C@H](CCC(=O)O)C(=O)NCC(=O)N[C@H](CCCCN)C(=O)O)NC(=O)[C@H](Cc2ccccc2)N(C)C(=O)[C@H](C)N(C)C(=O)[C@H](CC(C)C)NC(=O)[C@H](Cc2ccccc2)N(C)C(=O)[C@H](CCCNC(=N)N)NC(=O)[C@H](Cc2ccc(C(=O)O)cc2)NC(=O)[C@H](Cc2ccncc2)NC(=O)CN(C)C1=O` [Myostatin_99_v29] ({CH2CO}-AA[Trp(7-aza)]Y[NMeF]I[Sar][4Pal][Phe(4-COOH)]R[NMeF]L[NMeA][NMeF][dC]G[dE]G[dK]-OH; thioether N-15), for which the figures for the inhibition at 0.03 µM on GDF-11 and on Myostatin were 0% and 57%, respectively. The inhibition at 0.1 µM on GDF-11 came out at 0%; at Myostatin, 81%.
In the case of `CCCCCCC[C@@H]1NC(=O)[C@H](Cc2ccccc2)N(C)C(=O)[C@H](CCCNC(=N)N)NC(=O)[C@H](Cc2ccc(C(=O)O)cc2)NC(=O)[C@H](Cc2cccc(OCC(=O)O)c2)NC(=O)CN(C)C(=O)[C@H]([C@@H](C)CC)NC(=O)[C@H](Cc2cccc(-c3ccccc3)c2)N(C)C(=O)[C@H](Cc2ccc(O)cc2)NC(=O)[C@H](Cc2c[nH]c3ccccc23)NC(=O)[C@H](C)NC(=O)[C@H](C)NC(=O)CSC[C@H](C(=O)N2CCN(CC(=O)O)CC2)NC(=O)[C@H](Cc2ccccc2)N(C)C(=O)[C@H](C)N(C)C1=O` [Myostatin_99_v304] ({CH2CO}-AAWY[NMePhe(3-Ph)]I[Sar][Phe(3-OCH2COOH)][Phe(4-COOH)]R[NMeF][X1][NMeA][NMeF][dC]-{Piperazinyl(4-CH2COOH)}; thioether N-15), at GDF-11, the inhibition at 0.03 µM worked out at 0% and the inhibition at 0.1 µM was 0%. At Myostatin, the inhibition at 0.03 µM amounted to 74% and the inhibition at 0.1 µM was found to be 88%.
